Measured values from ChEMBL document CHEMBL3885861, “Open TG-GATES”.

Species: Rattus norvegicus
Assay: Open TG-GATES - Regimen: Daily Repeat
Format: toxicity, organism-based, Sprague-Dawley
Set-up: regimen Daily Repeat, gender Male, age 6 weeks
Details: in vivo, po, 15 mg/kg, route gavage, dose level Low; for APTT / Bas / Eos / Fbg / Hb / Ht / Lym / MCHC / MCV / Mono / Neu / PT / Plat / RBC / Ret / WBC: tissue Blood; for KIDNEY_L / KIDNEY_R / KIDNEY_TOTAL: tissue Kidney; for LIVER: tissue Liver; for ALP / ALT / AST / BUN / CRE / Ca / Cl / DBIL / GLC / IP / K / LDH / Na / PL / RALB / TBIL / TC / TG / TP / gamma-GTP: tissue Plasma

## C1CCC(C(CC2CCCCN2)C2CCCCC2)CC1 (centres undefined) [PERHEXILINE]
72 h, time 3 day
  TERMINAL_BW: 221.1 g
  APTT: 22 s
  Bas: 0%
  Eos: 0.8%
  Fbg: 313.4 mg/dL
  Hb: 13.4 g/dL
  Ht: 39.5%
  Lym: 82.4%
  MCHC: 33.7%
  MCV: 62.1 fL
  Mono: 1.6%
  Neu: 14.2%
  PT: 16.6 s
  Plat: 127.5 x10_4/uL
  RBC: 637.8 x10_4/ul
  Ret: 5.8%
  WBC: 90.6 x10_2/uL
  KIDNEY_L: 1 g
  KIDNEY_R: 1 g
  KIDNEY_TOTAL: 2 g
  LIVER: 10.6 g
  ALP: 1691.8 IU/L
  ALT: 40.6 IU/L
  AST: 69.8 IU/L
  BUN: 16.2 mg/dL
  CRE: 0.2 mg/dL
  Ca: 10.8 mg/dL
  Cl: 106.4 meq/L
  DBIL: 0 mg/dL
  GLC: 186.2 mg/dL
  IP: 6.6 mg/dL
  K: 4.2 meq/L
  LDH: 253.2 IU/L
  Na: 142.6 meq/L
  PL: 150 mg/dL
  RALB: 3.1 g/dL
  TBIL: 0.008 mg/dL
  TC: 74 mg/dL
  TG: 131 mg/dL
  TP: 5.7 g/dL
  gamma-GTP: 1 IU/L
[…], time 7 day
  TERMINAL_BW: 248.3 g
  APTT: 22.8 s
  Bas: 0%
  Eos: 1%
  Fbg: 313.2 mg/dL
  Hb: 13.6 g/dL
  Ht: 39.9%
  Lym: 79.4%
  MCHC: 34%
  MCV: 62.5 fL
  Mono: 2.2%
  Neu: 16.6%
  PT: 16 s
  Plat: 115.3 x10_4/uL
  RBC: 639.4 x10_4/ul
  Ret: 5.3%
  WBC: 110.7 x10_2/uL
  KIDNEY_L: 1.1 g
  KIDNEY_R: 1.1 g
  KIDNEY_TOTAL: 2.1 g
  LIVER: 12 g
  ALP: 1491.4 IU/L
  ALT: 41 IU/L
  AST: 70.8 IU/L
  BUN: 17 mg/dL
  CRE: 0.2 mg/dL
  Ca: 10.3 mg/dL
  Cl: 106.8 meq/L
  DBIL: 0 mg/dL
  GLC: 199.8 mg/dL
  IP: 7.2 mg/dL
  K: 4.2 meq/L
  LDH: 213.8 IU/L
  Na: 143.6 meq/L
  PL: 157.8 mg/dL
  RALB: 3 g/dL
  TBIL: 0.004 mg/dL
  TC: 75 mg/dL
  TG: 162.4 mg/dL
  TP: 5.7 g/dL
  gamma-GTP: 1.6 IU/L
[…], time 14 day
  TERMINAL_BW: 309.8 g
  APTT: 23.1 s
  Bas: 0%
  Eos: 0.4%
  Fbg: 320.2 mg/dL
  Hb: 14.9 g/dL
  Ht: 42.6%
  Lym: 82.8%
  MCHC: 35%
  MCV: 60.8 fL
  Mono: 1.6%
  Neu: 13.8%
  PT: 16.1 s
  Plat: 112 x10_4/uL
  RBC: 702.2 x10_4/ul
  Ret: 3.7%
  WBC: 125.7 x10_2/uL
  KIDNEY_L: 1.2 g
  KIDNEY_R: 1.2 g
  KIDNEY_TOTAL: 2.4 g
  LIVER: 13 g
  ALP: 1618.8 IU/L
  ALT: 41.2 IU/L
  AST: 73.8 IU/L
  BUN: 18.6 mg/dL
  CRE: 0.2 mg/dL
  Ca: 10.5 mg/dL
  Cl: 107 meq/L
  DBIL: 0 mg/dL
  GLC: 191.8 mg/dL
  IP: 6.1 mg/dL
  K: 4.1 meq/L
  LDH: 207.4 IU/L
  Na: 143.8 meq/L
  PL: 145.4 mg/dL
  RALB: 3.2 g/dL
  TBIL: 0.004 mg/dL
  TC: 65.4 mg/dL
  TG: 177.2 mg/dL
  TP: 6 g/dL
  gamma-GTP: 1.6 IU/L
[…], time 28 day
  TERMINAL_BW: 362.5 g
  APTT: 22.8 s
  Bas: 0%
  Eos: 1%
  Fbg: 313.2 mg/dL
  Hb: 13.6 g/dL
  Ht: 39.9%
  Lym: 79.4%
  MCHC: 34%
  MCV: 62.5 fL
  Mono: 2.2%
  Neu: 16.6%
  PT: 16 s
  Plat: 115.3 x10_4/uL
  RBC: 639.4 x10_4/ul
  Ret: 5.3%
  WBC: 110.7 x10_2/uL
  KIDNEY_L: 1.3 g
  KIDNEY_R: 1.3 g
  KIDNEY_TOTAL: 2.6 g
  LIVER: 14.5 g
  ALP: 1153.2 IU/L
  ALT: 39.4 IU/L
  AST: 63.6 IU/L
  BUN: 18.2 mg/dL
  CRE: 0.2 mg/dL
  Ca: 10.3 mg/dL
  Cl: 108 meq/L
  DBIL: 0.002 mg/dL
  GLC: 191 mg/dL
  IP: 6.4 mg/dL
  K: 4 meq/L
  LDH: 156 IU/L
  Na: 144.4 meq/L
  PL: 138.6 mg/dL
  RALB: 3.2 g/dL
  TBIL: 0.012 mg/dL
  TC: 63.2 mg/dL
  TG: 130.2 mg/dL
  TP: 6.2 g/dL
  gamma-GTP: 1.2 IU/L
